Data reported in patent US8314150B2, “Kinase protein binding inhibitors” (priority 2008, dated 2012).

What was measured:
[1] = test system: resistant breast cancer cells with overexpressed Src and activated FAK; assay: Cell viability in resistant breast cancer cells; type: cell-based; settings: not shown
Protocol: (§1) Cell Viability Assay—The Cells were treated with peptides for 24 hours at different peptide concentrations. The 3-(4,5-dimethylthiazol-2-yl)-5-(3-carboxymethoxyphenyl)-2-(4-sulfophenyl)-2H-tetrazolium compound from Promega Viability kit (Madison, Ill.) was added, and the cells were incubated at 37° C. for 1-2 hours. The optical density on 96-plate was analyzed with a microplate reader at 490 nm to determine cell viability. In addition, cells were stained with trypan blue after 24 hours of treatment with Y15 and the percent of cells that stained positive were determined with a hemacytometer. […] Then 2% SDS was added to the dried plated and OD at 590 nm was measured for detecting cell adhesion. […] Protein concentrations were determined using a Bio-Rad Kit. The boiled samples were loaded on Ready SDS-10% PAGE gels (Bio Rad, Inc) and used for Western blot analysis with the protein-specific antibody. […] Detachment Assay—Cells were plated with and without inhibitors for 24 hours, and detached and attached cells were counted in a hemocytometer. We calculated the percent of detachment by dividing the number of detached cells by the total number of cells. The percent of detached cells was calculated in three independent experiments. […] For each experiment 300 cells per treatment were counted. […]

VEGFR-3 phosphorylation = assay: Phosphorylation of VEGFR-3 in cells; type: cell-based; settings: not shown
Protocol: as §1

[2] = test system: Y397 phosphorylation of FAK; assay: Western blotting with Y397 FAK antibody, Panc-1 cells; type: cell-based, human; settings: 24 hours
Protocol: (§2) Cell Viability Assay—The Cells were treated with peptides for 24 hours at different peptide concentrations. The 3-(4,5-dimethylthiazol-2-yl)-5-(3-carboxymethoxyphenyl)-2-(4-sulfophenyl)-2H-tetrazolium compound from Promega Viability kit (Madison, Ill.) was added, and the cells were incubated at 37° C. for 1-2 hours. The optical density on 96-plate was analyzed with a microplate reader at 490 nm to determine cell viability. In addition, cells were stained with trypan blue after 24 hours of treatment with Y15 and the percent of cells that stained positive were determined with a hemacytometer. Cell adhesion assay—The poly-L-Lysine or Collagen (5 μg/ml) coated 96-well plates were blocked with the blocking buffer (medium with 0.5% BSA) for 1 hour at 37 C. The cells were pre-treated with drugs for 3 hours and plated for adhesion at 4×10^5 cells. Cells were incubated at 37 C for 1 hour, fixed in 3.7% formaldehyde, washed in 0.1% BSA in PBS and stained with crystal violet (5 mg/ml in 2% ethanol) for 10 minutes. Then 2% SDS was added to the dried plated and OD at 590 nm was measured for detecting cell adhesion. […] Protein concentrations were determined using a Bio-Rad Kit. The boiled samples were loaded on Ready SDS-10% PAGE gels (Bio Rad, Inc) and used for Western blot analysis with the protein-specific antibody. […] Detachment Assay—Cells were plated with and without inhibitors for 24 hours, and detached and attached cells were counted in a hemocytometer. We calculated the percent of detachment by dividing the number of detached cells by the total number of cells. The percent of detached cells was calculated in three independent experiments. […] The percent of apoptotic cells was calculated as a ratio of apoptotic detached cells divided by the total number of cells in three independent experiments in several fields with the fluorescent microscope. For each experiment 300 cells per treatment were counted. […]

BT474 cells [3] = assay: Apoptosis assay (Hoechst staining), BT474; type: cell-based
Protocol: as §2, with “counted. In vitro Kinase Assay—10 μCi of [γ-^32P]-ATP in a kinase buffer (20 mM HEPES, pH 7.4, 5 mM MgCl2, 5 mM MnCl2, 0.1 mM Na3VO4 with 0.1 μg of purified FAK protein were incubated in a kinase buffer with 10 μCi of [γ-^32P]-ATP. The kinase reaction was performed for 5 minutes at room temperature and stopped by addition of 2× Laemmli buffer. Proteins were separated on a Ready SDS-10% PAGE gel, and the phosphorylated enolase was visualized by autoradiography. KinaseProfiler screening—Kinase specificity screening was performed with KinaseProfiler™ Service (Millipore) available on http://www.millipore.com/drugdiscovery/dd3/KinaseProfiler.” for “counted.”

Panc-1 cells = assay: Apoptosis assay (Hoechst staining), Panc-1; type: cell-based, human
Protocol: as §2

[4] = test system: normal breast epithelial cells (MCF10A); assay: Trypan blue staining, normal breast epithelial cells; type: cell-based, human; settings: doses up to 10 μM
Protocol: as §1

BT474 cells [5] = assay: Cell adhesion assay on collagen-coated plates, BT474; type: cell-based
Protocol: as §1

ERK1/2 phosphorylation = ERK1/2 phosphorylation in pancreatic cancer cells; type: cell-based, human; settings: dose dependent
Protocol: as §1

normal human fibroblasts = assay: Detachment and morphology, normal human fibroblasts; type: cell-based; settings: doses up to 10 μM
Protocol: as §1

Panc-1 tumor cells = assay: Panc-1 subcutaneous tumor growth in nude mice; type: in vivo; settings: 30 mg/kg each, daily intraperitoneal
Protocol: as §1

FAK-Y397 phosphorylation = assay: FAK-Y397 levels in Panc-1 tumors by Western blotting; type: in vivo, mice; settings: 30 mg/kg, day 36, vs PBS
Protocol: as §1

caspase-3 = assay: Caspase-3 immunohistochemistry of Panc-1 tumors; type: in vivo, mice; settings: 30 mg/kg, no significant increase
Protocol: as §1

[6] = test system: tumor associated fibroblasts; assay: Trypan blue staining, tumor associated fibroblasts; type: cell-based; settings: increasing doses, 24 hours
Protocol: as §1

Cl.Cl.Cl.Cl.Nc1cc(N)c(N)cc1N [Y15, 1,2,4,5-benzenetetraamine tetrahydrochloride]
cell viability [1]: effectively blocked cell viability | phosphorylation of VEGFR-3 (VEGFR-3 phosphorylation): did not inhibit | inhibition of Y397 phosphorylation compared with TAE226 ([2]; 100 μM): same or better inhibition as TAE226 | dose from which Y397 phosphorylation of FAK was inhibited [2]: 0.1 µM | total FAK level ([2]; higher doses): down regulated | apoptotic nuclei (Hoechst) (BT474 cells [3]; 200 μM): No apoptotic nuclei were detected | apoptotic levels (BT474 cells [3]; 50-100 μM): less than 6% | apoptotic nuclei (Hoechst) (Panc-1 cells; 50 μM): no detection of apoptotic nuclei | increase in apoptosis (Panc-1 cells; 50-100 μM, not significant): less than 10% | cell viability (trypan blue) [4]: no decrease in cell viability | cell adhesion (BT474 cells [5]; 100 μM): significantly inhibited cell adhesion as TAE-226 | dose from which cell adhesion was significantly decreased (BT474 cells [5]; collagen-coated plates): 50 µM | p-ERK (ERK1/2 phosphorylation): down regulated | morphology and cell detachment (normal human fibroblasts): did not cause a significant change in morphology or increase in cell detachment | tumor growth (Panc-1 tumor cells): inhibited tumor growth even better than gemcitabine alone | Y397 phosphorylation in tumors (FAK-Y397 phosphorylation): lower levels of Y397 phosphorylation | apoptotic cells in tumors (caspase-3 staining) (caspase-3): 6% | cell viability (trypan blue) [6]: no significant decrease in viability
